According to patent US20210017607A1, “Methods of Predicting Responsiveness to Cancer Therapies” (The University of Chicago, priority 2019, published 2021):

Experiments:
B6-Myc (STING^hi) tumors = assay: B6-Myc syngeneic tumor growth; format: in vivo, mouse; conditions: immunocompetent syngeneic mice
Source text: Tumor volume curves for duration of treatment are shown. […] Data are represented relative to CD45+ immune cells.
Tumor volume curves for duration of treatment are shown.

Myc-CAP-PTEN^−/− tumors = assay: Myc-CAP-PTEN−/− syngeneic tumors in vivo (growth, flow cytometry); set-up: species or system mouse
Experimental: FIGS. 35A-35D. […] (35A) Myc-CAP-PTEN^−/− cells were treated with copanlisib […] (IC90 concentration) in vitro for 24 hours, and protein extracts were harvested for western blotting analysis with the indicated antibodies to analyze PI3K activation. (35B) Supernatants from (35A) were harvested for cytokine array profiling. n=3 independent in vitro experiments. (35C) Mice bearing Myc-CAP-PTEN^−/− established syngeneic tumors (200 mm^3) were treated with copanlisib (14 mg/kg, every other day, until tumors reached 2000 mm^3). Tumor volumes were monitored daily and graphed. (35D) At the end of treatment, tumors were analyzed by flow cytometry for tumor infiltrating immune cell subsets. n=5 mice per group.
FIGS. 37A and 37B. Myc-CAP-PTEN deficient cancers are resistant to ADT/PARPi/PI3Ki/combination due to an absence of macrophage infiltration/activation and secondary CD8/CD4 T cell infiltration following treatment. Syngeneic PTEN-proficient and PTEN-deficient Myc-CAP mice were treated with a single dose of degarelix, rucaparib (PARP inhibitor), BKM120 (pan-PI3K inhibitor), or anti-PD-L1 antibody, singly and in combination for 3 weeks. (37A) Tumor volumes were monitored, as indicated. (37B) Tumors were harvested at the end of treatment and macrophage infiltration and activation (upper left and right panels), and CD4 and CD8 T cell infiltration (lower left and right panels, respectively) were analyzed by flow cytometry. n=3 animals/group.
FIG. 44. […] Syngeneic mice bearing established PTEN-proficient (PTEN^+/+) and PTEN-deficient (PTEN^−/−) Myc-CAP tumors (200 mm^3) were treated with DMXAA ([…] intra-tumoral dose) for 12 days. Tumor volumes were monitored daily and graphed relative to untreated groups. n=3-5 mice per group.
FIGS. 45A and 45B. […] Syngeneic mice bearing established PTEN-proficient (PTEN^+/+) and PTEN-deficient (PTEN^−/−) Myc-CAP tumors (200 mm^3) were treated with DMXAA (500 μg, single intra-tumoral dose) for 12 days. The harvested tumors were analyzed by flow cytometry for CD45 (45A) and tumor infiltrating immune cell subsets (45B). n=3-5 mice per group.
FIGS. 46A-46C. […] Syngeneic mice bearing established PTEN-proficient (PTEN^+/+) or PTEN-deficient (PTEN^−/−) Myc-CAP tumors (200 mm^3) were treated with DMXAA (500 μg, single intra-tumoral dose) for 12 days. The harvested tumors were analyzed by flow cytometry for activation status of immune cells: (46A) MHC-II/PD-L1 expression on macrophages; (46B) 41bb/PD-1 expression on CD4+FoxP3-T-cells and (46C) on CD8+T-cells. n=3-5 mice per group.
FIG. 47. […] Syngeneic mice bearing established PTEN-proficient (PTEN^+/+) and PTEN-deficient (PTEN^−/−) Myc-CAP tumors (200 mm^3) were treated with DMXAA (500 μg, single intra-tumoral dose) for 12 days. The harvested tumors were analyzed by flow cytometry for CD4+T-cells subsets, specifically FoxP3+ and FoxP3− fractions. n=3-5 mice per group.
In vivo drug efficacy studies using murine tumor models. Wild-type (WT) C57BL/6J, FVB/NJ mice were purchased from Jackson laboratories and mice were kept in an AALAC (American Association for the Accreditation of Laboratory Animal Care) certified barrier facility at the University of Chicago. Animal work was carried out according to approved IACUC (Institutional Animal Care and Use Committee protocols). For Myc-CAP cell line based experiments, mice aged 8-10 weeks were engrafted with 1 million cells re-suspended in 1×PBS, under anesthesia. Treatments were started when tumor volumes reached approximately 250-400 mm^3, and mice were randomly allocated to treatment groups as indicated. Tumor volume was calculated using the formula: 0.5×longest diameter×(shortest diameter)^2. Euthanasia was performed for tumor ulceration and/or tumor diameter >2 cm, as per IACUC-approved protocol. All in vivo treatments were done for 20-23 days and tumor volume measurements were collected on a daily basis. For ID8 tumors, the weights (gm) as well as the abdominal girth (mm) measurements were recorded daily. […]

[1] = tested on: prostate-specific PTEN^−/−p53^−/− GEMM tumors; assay: Ex vivo GEMM tumor suspensions, IFNβ1 ELISA; format: cell-based, mouse; conditions: DMXAA 50 μg/mL, 36 hours
Experimental: FIG. 39. […] Tumors from prostate-specific PTEN^−/−p53^−/− GEMM tumors were processed into single cell suspensions and treated with indicated drugs (DMXAA at 50 μg/mL, Buparlisib at 1000 nM, Rucaparib at 500 nM). At 36 hours supernatants were collected for ELISA based detection of IFNβ1; n=1 independent experiment.
Ex vivo Assays. Subcutaneous tumors were isolated by gentle mechanical dissociation in the presence of 1×RPMI (supplemented with 10% fetal bovine serum, 1% penicillin-streptomycin and 2% L-glutamine). 1×ACK was used for RBC lysis. Single cell suspensions were washed twice with media, by centrifuging at 500×g for 5 min at 4° C. and quantified using 0.1% […] solution. Cells were seeded at a concentration 0.2-0.5 million cells/mL and treated with indicated drugs singly or in combination for 36 hours. DMXAA (positive control) was used at indicated concentration. Supernatants from treated BMDMs were collected at the end of 36 hours and processed as per ELISA protocol for detection of cytokines/chemokines.

[2] = DMXAA 500 μg single intra-tumoral dose, 12 days
[3] = relative to PTEN-proficient counterparts
[4] = copanlisib 14 mg/kg every other day

Row | Structure (SMILES) | tumor growth response (B6-Myc (STING^hi) tumors) | Gr-MDSCs (Myc-CAP-PTEN^−/− tumors; [2]) | global immune infiltration (CD45) (Myc-CAP-PTEN^−/− tumors; [2]) | tumor responsiveness of PTEN-deficient relative to PTEN-proficient Myc-CAP tumors (Myc-CAP-PTEN^−/− tumors; DMXAA single intra-tumoral dose, 12 days) | response of PTEN-deficient prostate cancers to direct STING agonist (Myc-CAP-PTEN^−/− tumors; PTEN-deficient prostate cancer murine models (Example 1)) | macrophage, CD4 and CD8 T-cell activation (Myc-CAP-PTEN^−/− tumors; [3]) | regulatory T-cell infiltration (Myc-CAP-PTEN^−/− tumors; [3]) | STING activation (IFNβ1 ELISA) [1] | MDSC infiltration (Myc-CAP-PTEN^−/− tumors; [4]) | tumor growth (Myc-CAP-PTEN^−/− tumors; [4])
1 | Cc1ccc2c(=O)c3cccc(CC(=O)O)c3oc2c1C [DMXAA, 5,6-Dimethylxanthenone-4-acetic Acid] | phenocopied | trend towards decreasing Gr-MDSCs | increases global immune infiltration | more responsive | resistant | selectively increases macrophage, CD4 and CD8 T-cell activation | increases regulatory T-cell infiltration | induces STING activation | – | –
2 | COc1c(OCCCN2CCOCC2)ccc2c1N=C(NC(=O)c1cnc(N)nc1)N1CCN=C21 [copanlisib] | – | – | – | – | – | – | – | – | decreasing | retards growth
3 | CNCc1ccc(-c2[nH]c3cc(F)cc4c3c2CCNC4=O)cc1 [rucaparib] | de novo resistance | – | – | – | – | – | – | – | – | –
